Laboratory results reported in US12660819B2, “Herbicidal derivatives” (SYNGENTA CROP PROTECTION AG, priority 2020, dated 2026).

Columns and labels:
Format in all cases: in vivo
Setaria faberi (SETFA) [1] = assay: Pre-emergence Test (glasshouse, percentage damage to the plant); conditions: 1000 g/ha unless otherwise stated, Setaria faberi
[2] = tested on: Amaranthus retoflexus (AMARE); assay: as above; conditions: 1000 g/ha unless otherwise stated, Amaranthus retoflexus
Zea mays (ZEAMX) [3] = assay: as above; conditions: 1000 g/ha unless otherwise stated, Zea mays
[4] = tested on: Amaranthus retoflexus (AMARE); assay: Post-emergence Test (glasshouse, percentage damage to the plant); conditions: post-emergence; 1000 g/ha unless otherwise stated; evaluated after 13 days
Summary of the method: (§1)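 Seeds sown in pots in glasshouse (24/16 °C day/night, 14 h light, 65% humidity), then sprayed with compound at 1000 g/ha unless stated, from acetone/water 50:50 with 0.5% Tween 20. Damage assessed 13 days later on five-point scale (1=0–20% to 5=81–100%).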

Setaria faberi (SETFA) [5] = assay: as above; conditions: post-emergence; 1000 g/ha unless otherwise stated; evaluated after 13 days
Summary of the method: (§2)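 Seeds are sown in standard soil under controlled glasshouse conditions. The pots are then sprayed at 1000 g/ha, unless otherwise stated, with compound in acetone/water (50:50) containing 0.5% Tween 20. After 13 days further growth, percentage plant damage is scored from 1 (0-20%) to 5 (81-100%).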

[6] = tested on: Ipomoea hederacea (IPOHE); assay: as above; conditions: post-emergence; 1000 g/ha unless otherwise stated; evaluated after 13 days
Summary of the method: as §2

[7] = tested on: Amaranthus palmeri (AMAPA); assay: as above; conditions: post-emergence; 1000 g/ha unless otherwise stated; evaluated after 13 days
Summary of the method: as §1

Zea mays (ZEAMX) [8] = assay: as above; conditions: post-emergence; 1000 g/ha unless otherwise stated; evaluated after 13 days
Summary of the method: as §2

[9] = tested on: Ipomoea hederacea (IPOHE); assay: Pre-emergence Test (glasshouse, percentage damage to the plant); conditions: 1000 g/ha unless otherwise stated, Ipomoea hederacea
[10] = tested on: Amaranthus palmeri (AMAPA); assay: as above; conditions: 1000 g/ha unless otherwise stated, Amaranthus palmeri
[11] = tested on: Echinochloa crus-galli (ECHCG); assay: as above; conditions: 1000 g/ha unless otherwise stated, Echinochloa crus-galli

`CCn1c(C)c(-c2cc(F)ccc2C)c(=O)c(C(=O)O)c1-c1ccc(Cl)c(Cl)c1` [Compound 222, 2-(3,4-dichlorophenyl)-1-ethyl-5-(5-fluoro-2-methyl-phenyl)-6-methyl-4-oxo-pyridine-3-carboxylic acid] was tested, and the “percentage damage to the plant, SETFA (five-point scale)” value (“percentage damage to the plant, SETFA” below) (Setaria faberi (SETFA) [1]) was 1 (1=0-20%), the “percentage damage to the plant, AMARE (five-point scale)” value (shortened to “percentage damage to the plant, AMARE”) [2] was 1 (1=0-20%) and the “percentage damage to the plant, ZEAMX (five-point scale)” value (“percentage damage to the plant, ZEAMX” for short) (Zea mays (ZEAMX) [3]) was 1 (1=0-20%). For the same compound, the “AMARE, percentage damage caused to the plant (five-point scale)” value (“AMARE, percentage damage caused” below) [4] was 3 (3=41-60%), the “SETFA, percentage damage caused to the plant (five-point scale)” value (shortened to “SETFA, percentage damage caused”) (Setaria faberi (SETFA) [5]) was 3 (3=41-60%) and the “IPOHE, percentage damage caused to the plant (five-point scale)” value (“IPOHE, percentage damage caused” for short) [6] was 3 (3=41-60%). The “AMAPA, percentage damage caused to the plant (five-point scale)” value (“AMAPA, percentage damage caused” below) [7] was 5 (5=81-100%), the “ZEAMX, percentage damage caused to the plant (five-point scale)” value (shortened to “ZEAMX, percentage damage caused”) (Zea mays (ZEAMX) [8]) was 1 (1=0-20%) and the “percentage damage to the plant, IPOHE (five-point scale)” value (“percentage damage to the plant, IPOHE” for short) [9] was 1 (1=0-20%). The “percentage damage to the plant, AMAPA (five-point scale)” value (“percentage damage to the plant, AMAPA” below) [10] was 1 (1=0-20%) and the “percentage damage to the plant, ECHCG (five-point scale)” value (shortened to “percentage damage to the plant, ECHCG”) [11] was 1 (1=0-20%).

In the case of `CCn1c(C)c(-c2cccc3c2OC(F)(F)O3)c(=O)c(C(=O)O)c1-c1ccc(Cl)c(Cl)c1` [Compound 223, 2-(3,4-dichlorophenyl)-5-(2,2-difluoro-1,3-benzodioxol-4-yl)-1-ethyl-6-methyl-4-oxo-pyridine-3-carboxylic acid], the “percentage damage to the plant, SETFA” value (Setaria faberi (SETFA) [1]) is reported as 3 (3=41-60%), the “percentage damage to the plant, AMARE” value [2] is reported as 1 (1=0-20%) and the “percentage damage to the plant, ZEAMX” value (Zea mays (ZEAMX) [3]) is reported as 1 (1=0-20%). The “AMARE, percentage damage caused” value [4] was 5 (5=81-100%), the “SETFA, percentage damage caused” value (Setaria faberi (SETFA) [5]) was 3 (3=41-60%) and the “IPOHE, percentage damage caused” value [6] was 1 (1=0-20%). The “AMAPA, percentage damage caused” value [7] was 5 (5=81-100%), the “ZEAMX, percentage damage caused” value (Zea mays (ZEAMX) [8]) was 1 (1=0-20%) and the “percentage damage to the plant, IPOHE” value [9] was 0. For the same compound, the “percentage damage to the plant, AMAPA” value [10] was 3 (3=41-60%) and the “percentage damage to the plant, ECHCG” value [11] was 1 (1=0-20%).

`CCn1c(C)c(-c2cc(OC(F)(F)F)ccc2Cl)c(=O)c(C(=O)O)c1-c1ccc(Cl)c(Cl)c1` [Compound 224, 5-[2-chloro-5-(trifluoromethoxy)phenyl]-2-(3,4-dichlorophenyl)-1-ethyl-6-methyl-4-oxo-pyridine-3-carboxylic acid] was tested, and the “percentage damage to the plant, SETFA” value (Setaria faberi (SETFA) [1]) was 5 (5=81-100%), the “percentage damage to the plant, AMARE” value [2] was 3 (3=41-60%) and the “percentage damage to the plant, ZEAMX” value (Zea mays (ZEAMX) [3]) was 2 (2=21-40%). For the same compound, the “AMARE, percentage damage caused” value [4] was 5 (5=81-100%), the “SETFA, percentage damage caused” value (Setaria faberi (SETFA) [5]) was 5 (5=81-100%) and the “IPOHE, percentage damage caused” value [6] was 2 (2=21-40%). For the same compound, the “AMAPA, percentage damage caused” value [7] was 5 (5=81-100%), the “ZEAMX, percentage damage caused” value (Zea mays (ZEAMX) [8]) was 3 (3=41-60%) and the “percentage damage to the plant, IPOHE” value [9] was 2 (2=21-40%). For the same compound, the “percentage damage to the plant, AMAPA” value [10] was 4 (4=61-80%) and the “percentage damage to the plant, ECHCG” value [11] was 5 (5=81-100%).

For `CCn1c(C)c(-c2cc(C)ccc2C)c(=O)c(C(=O)O)c1-c1ccc(Cl)c(Cl)c1` [Compound 225, 2-(3,4-dichlorophenyl)-5-(2,5-dimethylphenyl)-1-ethyl-6-methyl-4-oxo-pyridine-3-carboxylic acid], the “percentage damage to the plant, SETFA” value (Setaria faberi (SETFA) [1]) was 0, the “percentage damage to the plant, AMARE” value [2] was 0 and the “percentage damage to the plant, ZEAMX” value (Zea mays (ZEAMX) [3]) was 0. For the same compound, the “AMARE, percentage damage caused” value [4] was 4 (4=61-80%), the “SETFA, percentage damage caused” value (Setaria faberi (SETFA) [5]) was 1 (1=0-20%) and the “IPOHE, percentage damage caused” value [6] was 1 (1=0-20%). For the same compound, the “AMAPA, percentage damage caused” value [7] was 5 (5=81-100%), the “ZEAMX, percentage damage caused” value (Zea mays (ZEAMX) [8]) was 1 (1=0-20%) and the “percentage damage to the plant, IPOHE” value [9] was 0. For the same compound, the “percentage damage to the plant, AMAPA” value [10] was 0 and the “percentage damage to the plant, ECHCG” value [11] was 1 (1=0-20%).

For `CCn1c(C)c(-c2cccc(C)c2F)c(=O)c(C(=O)O)c1-c1ccc(Cl)c(Cl)c1` [Compound 228, 2-(3,4-dichlorophenyl)-1-ethyl-5-(2-fluoro-3-methyl-phenyl)-6-methyl-4-oxo-pyridine-3-carboxylic acid], the “percentage damage to the plant, SETFA” value (Setaria faberi (SETFA) [1]) was 5 (5=81-100%), the “percentage damage to the plant, AMARE” value [2] was 2 (2=21-40%) and the “percentage damage to the plant, ZEAMX” value (Zea mays (ZEAMX) [3]) was 2 (2=21-40%). For the same compound, the “AMARE, percentage damage caused” value [4] was 4 (4=61-80%), the “SETFA, percentage damage caused” value (Setaria faberi (SETFA) [5]) was 3 (3=41-60%) and the “IPOHE, percentage damage caused” value [6] was 3 (3=41-60%). The “AMAPA, percentage damage caused” value [7] was 5 (5=81-100%), the “ZEAMX, percentage damage caused” value (Zea mays (ZEAMX) [8]) was 2 (2=21-40%) and the “percentage damage to the plant, IPOHE” value [9] was 3 (3=41-60%). The “percentage damage to the plant, AMAPA” value [10] was 4 (4=61-80%) and the “percentage damage to the plant, ECHCG” value [11] was 5 (5=81-100%).

`CCn1c(C)c(-c2cc(Cl)ccc2F)c(=O)c(C(=O)O)c1-c1ccc(Cl)c(Cl)c1` [Compound 229, 5-(5-chloro-2-fluoro-phenyl)-2-(3,4-dichlorophenyl)-1-ethyl-6-methyl-4-oxo-pyridine-3-carboxylic acid] was tested, and the “percentage damage to the plant, SETFA” value (Setaria faberi (SETFA) [1]) was 1 (1=0-20%), the “percentage damage to the plant, AMARE” value [2] was 4 (4=61-80%) and the “percentage damage to the plant, ZEAMX” value (Zea mays (ZEAMX) [3]) was 0. The “AMARE, percentage damage caused” value [4] was 5 (5=81-100%), the “SETFA, percentage damage caused” value (Setaria faberi (SETFA) [5]) was 1 (1=0-20%) and the “IPOHE, percentage damage caused” value [6] was 3 (3=41-60%). For the same compound, the “AMAPA, percentage damage caused” value [7] was 5 (5=81-100%), the “ZEAMX, percentage damage caused” value (Zea mays (ZEAMX) [8]) was 1 (1=0-20%) and the “percentage damage to the plant, IPOHE” value [9] was 1 (1=0-20%). For the same compound, the “percentage damage to the plant, AMAPA” value [10] was 4 (4=61-80%) and the “percentage damage to the plant, ECHCG” value [11] was 0.

In the case of `CCn1c(C)c(-c2cc(C)ccc2F)c(=O)c(C(=O)O)c1-c1ccc(Cl)c(Cl)c1` [Compound 231, 2-(3,4-dichlorophenyl)-1-ethyl-5-(2-fluoro-5-methyl-phenyl)-6-methyl-4-oxo-pyridine-3-carboxylic acid], the “percentage damage to the plant, SETFA” value (Setaria faberi (SETFA) [1]) is reported as 4 (4=61-80%), the “percentage damage to the plant, AMARE” value [2] is reported as 3 (3=41-60%) and the “percentage damage to the plant, ZEAMX” value (Zea mays (ZEAMX) [3]) is reported as 0. The “AMARE, percentage damage caused” value [4] was 5 (5=81-100%), the “SETFA, percentage damage caused” value (Setaria faberi (SETFA) [5]) was 3 (3=41-60%) and the “IPOHE, percentage damage caused” value [6] was 3 (3=41-60%). For the same compound, the “AMAPA, percentage damage caused” value [7] was 5 (5=81-100%), the “ZEAMX, percentage damage caused” value (Zea mays (ZEAMX) [8]) was 1 (1=0-20%) and the “percentage damage to the plant, IPOHE” value [9] was 0. The “percentage damage to the plant, AMAPA” value [10] was 4 (4=61-80%) and the “percentage damage to the plant, ECHCG” value [11] was 2 (2=21-40%).
